System: VEGFR
Test: Cell-based competitive binding assay on U87MG cells
Set-up: species or system human
Settings: read-out: IC50, competitive binding, competition against [^64Cu]VEGF125–136 (74 kBq/1 mL), competitor 0-10 000 nmol/L, 37 °C, 1 h, γ counter, triplicate

QKRKRKKSRYKS [VEGF125–136]
IC50: 0.277 ± 0.00619 µM

Source: publication PMC7178340 (ACS Omega, 2020)
